Experimental data: US10010614B2, “Derivatives of GLP-1 like peptides, and uses thereof” (Novo Nordisk A/S, priority 2013, dated 2018)
Where two headings read alike, the source gives them in different places. Numbered stars: 1 amine (or outer) side, 2 acyl side, 3 side chain; on linkers, the order of the positions; unused ones are H or OH. Square brackets hold non-standard residues; d marks the D form. Side chains are listed from the residue outwards. Peptide text beside a SMILES is read from it. * marks the point of attachment. C22 diacid = O=C(O)CCCCCCCCCCCCCCCCCCCCC(=O)*; C20 diacid = O=C(O)CCCCCCCCCCCCCCCCCCC(=O)*; γGlu = O=C(O)[C@H](CCC(=O)[*:2])N[*:1]; εLys = N[C@@H](CCCCN[*:1])C(=O)[*:2]; Trx = NC[C@H]1CC[C@H](C(=O)O)CC1; AEEA = NCCOCCOCC(=O)O; Aib = CC(C)(N)C(=O)O

How the values were obtained:
human GLP-1 receptor [1] = target: T1, human GLP-1 receptor (Homo sapiens, UniProt P43220); assay: In vitro potency, CRE luciferase reporter gene assay in BHK cells expressing the human GLP-1 receptor; type: cell-based; settings: whole cell reporter gene assay, 3 h incubation, no HSA, averages of at least two replicates
T1 construct: expressed in transfected cells; host or cells: membranes prepared from BHK cells (parent line BHKTS13), clone FCW467-12A
Summary of the method: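 Stably transfected BHK cells (5×10^3/well) expressing human GLP-1R with a CRE-luciferase reporter; compounds diluted in buffer with 2% ovalbumin and 0.2% Pluronic F-68, final 1×10^−7 to 1×10^−14 M. Incubated 3 h at 37 °C, 5% CO2, then luminescence read; potency from non-linear log(agonist)–response fit, mean of ≥2 replicates.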

human GLP-1 receptor [2] = target: T1, human GLP-1 receptor; assay: GLP-1 receptor binding, competitive binding assay (125I-GLP-1, SPA) on isolated membranes;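 note: test compounds added at a range of concentrations to membranes from cells expressing the human GLP-1 receptor, scored by displacement of labelled ligand, read with WGA SPA beads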
[3] = Pharmacokinetic study in minipigs (i.v.); type: in vivo; settings: male, Göttingen, minipig, plasma, iv; read-out: Terminal half-live (converted)
Method: The purpose of this study is to determine the protraction in vivo of the GLP-1 derivatives after i.v. administration to minipigs, i.e. the prolongation of their time in the body and thereby their time of action. This is done in a pharmacokinetic (PK) study, where the terminal half-life of the derivative in question is determined. By terminal half-life is meant the time it takes to halve a certain plasma concentration in the terminal elimination phase.
The derivatives of Examples 1-5 were dosed with 2 nmol/kg, the derivative of Example 6 was dosed with 5 nmol/kg, and the derivatives of Examples 7-9 were dosed with 15 nmol/kg.
Male Göttingen minipigs were obtained from Ellegaard Göttingen Minipigs (Dalmose, Denmark) approximately 7-14 months of age and weighing approximately 16-35 kg were used in the studies. The minipigs were housed either individually (pigs with permanent catheters) or in a group and fed restrictedly once or twice daily with SDS minipig diet (Special Diets Services, Essex, UK).
After at least 2 weeks of acclimatisation two permanent central venous catheters were implanted in vena cava caudalis or cranialis in each animal. The animals were allowed 1 week recovery after the surgery, and were then used for repeated pharmacokinetic studies with a suitable wash-out period between successive GLP-1 derivative dosings.
The GLP-1 derivatives were dissolved in 50 mM sodium phosphate, 70-145 mM sodium chloride, 0.05% tween 80, pH 7.4 to a concentration of usually from 20-60 nmol/ml.
Intravenous injections (the volume corresponding to for example 0.050-0.125 ml/kg) of the compounds were given through one catheter or through the venflon, and blood was sampled at predefined time points for up till 25 days post dosing (preferably through the other catheter or by venipuncture). Blood samples (for example 0.8 ml) were collected in EDTA buffer (8 mM) and then centrifuged at 4° C. and 1942G for 10 minutes.
Plasma was pipetted into Micronic tubes on dry ice, and kept at −20° C. until analysed for plasma concentration of the respective GLP-1 compound using LOCI. Individual plasma concentration-time profiles were analyzed by a non-compartmental pharmacokinetic method in Phoenix v. 6.2 (Pharsight Inc., Mountain View, Calif., USA), or other relevant software for PK analysis, and the resulting terminal half-lives (harmonic mean) determined.

[4] = High HSA IC50 (nM), high serum albumin (2.0% HSA final assay concentration)
[5] = Low HSA IC50 (nM), low serum albumin (max. 0.001% final assay concentration)

T1 sequence (P43220 24-463): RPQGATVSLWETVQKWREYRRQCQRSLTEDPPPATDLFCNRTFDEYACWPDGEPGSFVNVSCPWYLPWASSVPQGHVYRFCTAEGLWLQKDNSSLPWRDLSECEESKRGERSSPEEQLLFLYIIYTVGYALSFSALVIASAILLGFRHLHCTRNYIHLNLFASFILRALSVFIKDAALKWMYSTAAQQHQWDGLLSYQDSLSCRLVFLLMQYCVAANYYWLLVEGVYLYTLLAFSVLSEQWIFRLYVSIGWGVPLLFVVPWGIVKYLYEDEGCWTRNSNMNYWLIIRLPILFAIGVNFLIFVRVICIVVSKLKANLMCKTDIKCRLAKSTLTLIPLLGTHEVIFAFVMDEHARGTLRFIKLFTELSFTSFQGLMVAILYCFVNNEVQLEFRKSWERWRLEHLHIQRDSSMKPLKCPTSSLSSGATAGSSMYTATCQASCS

| IC50 (human GLP-1 receptor [2]; high serum albumin (2.0% HSA final assay concentration), read-out: High HSA IC50) [nM] | IC50 (human GLP-1 receptor [2]; low serum albumin (max. 0.001% final assay concentration), read-out: Low HSA IC50) [nM] | SMILES | EC50 (human GLP-1 receptor [1]) [nM] | IC50 (human GLP-1 receptor [2]; [4]) [nM] | IC50 (human GLP-1 receptor [2]; [5]) [nM] | half-life [3] [h] |
| --- | --- | --- | --- | --- | --- | --- |
|  |  | CC[C@H](C)[C@H](NC(=O)[C@H](Cc1ccccc1)NC(=O)[C@H](CCC(=O)O)NC(=O)[C@H](CCCNC(=N)N)NC(=O)[C@H](C)NC(=O)[C@H](C)NC(=O)[C@H](CCC(N)=O)NC(=O)[C@H](CCC(=O)O)NC(=O)[C@H](CCC(=O)O)NC(=O)[C@H](CC(C)C)NC(=O)[C@H](Cc1ccc(O)cc1)NC(=O)[C@H](CO)NC(=O)[C@H](CO)NC(=O)[C@@H](NC(=O)[C@H](CC(=O)O)NC(=O)[C@H](CO)NC(=O)[C@@H](NC(=O)[C@H](Cc1ccccc1)NC(=O)[C@@H](NC(=O)CNC(=O)[C@H](CCC(=O)O)NC(=O)C(C)(C)NC(=O)[C@@H](N)Cc1c[nH]cn1)[C@@H](C)O)[C@@H](C)O)C(C)C)C(=O)N[C@@H](C)C(=O)N[C@@H](CCCCNC(=O)COCCOCCNC(=O)COCCOCCNC(=O)CC[C@H](NC(=O)[C@H]1CC[C@H](CNC(=O)CCCCCCCCCCCCCCCCCCC(=O)O)CC1)C(=O)O)C(=O)N[C@@H](CC(C)C)C(=O)N[C@H](C(=O)N[C@@H](CCCNC(=N)N)C(=O)NCC(=O)N[C@@H](CCCNC(=N)N)C(=O)NCC(=O)NCC(=O)NCC(=O)NCC(=O)N[C@@H](CO)C(=O)N[C@@H](CCCCNC(=O)COCCOCCNC(=O)COCCOCCNC(=O)CC[C@H](NC(=O)[C@H]1CC[C@H](CNC(=O)CCCCCCCCCCCCCCCCCCC(=O)O)CC1)C(=O)O)C(=O)O)C(C)C [Example 2] (H-H[Aib]EGTFTSDVSSYLEEQAAREFIAK([AEEA-AEEA-γGlu-Trx-C20 diacid])LVRGRGGGGSK([AEEA-AEEA-γGlu-Trx-C20 diacid])-OH) | 0.036 | ≥ 1000 | 1.4 | 110 |
|  |  | CC[C@H](C)[C@H](NC(=O)[C@H](Cc1ccccc1)NC(=O)[C@H](CCC(=O)O)NC(=O)[C@H](CCCNC(=N)N)NC(=O)[C@H](C)NC(=O)[C@H](C)NC(=O)[C@H](CCC(N)=O)NC(=O)[C@H](CCC(=O)O)NC(=O)[C@H](CCC(=O)O)NC(=O)[C@H](CC(C)C)NC(=O)[C@H](Cc1ccc(O)cc1)NC(=O)[C@H](CCCCNC(=O)COCCOCCNC(=O)COCCOCCNC(=O)CC[C@H](NC(=O)[C@H]1CC[C@H](CNC(=O)CCCCCCCCCCCCCCCCCCC(=O)O)CC1)C(=O)O)NC(=O)[C@H](CO)NC(=O)[C@@H](NC(=O)[C@H](CC(=O)O)NC(=O)[C@H](CO)NC(=O)[C@@H](NC(=O)[C@H](Cc1ccccc1)NC(=O)[C@@H](NC(=O)CNC(=O)[C@H](CCC(=O)O)NC(=O)C(C)(C)NC(=O)[C@@H](N)Cc1c[nH]cn1)[C@@H](C)O)[C@@H](C)O)C(C)C)C(=O)N[C@@H](C)C(=O)N[C@@H](Cc1c[nH]c2ccccc12)C(=O)N[C@@H](CC(C)C)C(=O)N[C@H](C(=O)N[C@@H](CCCNC(=N)N)C(=O)NCC(=O)N[C@@H](CCCNC(=N)N)C(=O)NCC(=O)NCC(=O)NCC(=O)NCC(=O)N[C@@H](CO)C(=O)N[C@@H](CCCCNC(=O)COCCOCCNC(=O)COCCOCCNC(=O)CC[C@H](NC(=O)[C@H]1CC[C@H](CNC(=O)CCCCCCCCCCCCCCCCCCC(=O)O)CC1)C(=O)O)C(=O)O)C(C)C [Example 6] (H-H[Aib]EGTFTSDVSK([AEEA-AEEA-γGlu-Trx-C20 diacid])YLEEQAAREFIAWLVRGRGGGGSK([AEEA-AEEA-γGlu-Trx-C20 diacid])-OH) | 0.093 | ≥ 1000 | 1 | 99 |
| 383 | 0.43 | CC[C@H](C)[C@H](NC(=O)[C@H](Cc1ccccc1)NC(=O)[C@H](CCCCNC(=O)[C@@H](N)CCCCNC(=O)[C@@H](N)CCCCNC(=O)CC[C@H](NC(=O)CCCCCCCCCCCCCCCCCCC(=O)O)C(=O)O)NC(=O)[C@H](CCCNC(=N)N)NC(=O)[C@H](C)NC(=O)[C@H](C)NC(=O)[C@H](CCC(N)=O)NC(=O)[C@H](CCC(=O)O)NC(=O)[C@H](CCC(=O)O)NC(=O)[C@H](CC(C)C)NC(=O)[C@H](Cc1ccc(O)cc1)NC(=O)[C@H](CO)NC(=O)[C@H](CO)NC(=O)[C@@H](NC(=O)[C@H](CC(=O)O)NC(=O)[C@H](CO)NC(=O)[C@@H](NC(=O)[C@H](Cc1ccccc1)NC(=O)[C@@H](NC(=O)CNC(=O)[C@H](CCC(=O)O)NC(=O)C(C)(C)NC(=O)[C@@H](N)Cc1c[nH]cn1)[C@@H](C)O)[C@@H](C)O)C(C)C)C(=O)N[C@@H](C)C(=O)N[C@@H](Cc1c[nH]c2ccccc12)C(=O)N[C@@H](CC(C)C)C(=O)N[C@H](C(=O)N[C@@H](CCCNC(=N)N)C(=O)NCC(=O)N[C@@H](CCCNC(=N)N)C(=O)NCC(=O)NCC(=O)NCC(=O)NCC(=O)N[C@@H](CO)C(=O)N[C@@H](CCCCNC(=O)[C@@H](N)CCCCNC(=O)[C@@H](N)CCCCNC(=O)CC[C@H](NC(=O)CCCCCCCCCCCCCCCCCCC(=O)O)C(=O)O)C(=O)O)C(C)C [Example 8, N{Epsilon-27}-[(2S)-2-amino-6-[[(2S)-2-amino-6-[[(4S)-4-carboxy-4-(19-carboxynonadecanoylamino)butanoyl]amino]hexanoyl]amino]hexanoyl]-[Aib8,Glu22,Arg26,Lys27,Arg34]-GLP-1-(7-37)-peptidyl-Gly-Gly-Gly-Ser-N{Epsilon}[(2S)-2-amino-6-[[(2S)-2-amino-6-[[(4S)-4-carboxy-4-(19-carboxynonadecanoylamino)butanoyl]amino]hexanoyl]amino]hexanoyl]Lys] (H-H[Aib]EGTFTSDVSSYLEEQAARK([εLys-εLys-γGlu-C20 diacid])FIAWLVRGRGGGGSK([εLys-εLys-γGlu-C20 diacid])-OH) | 0.26 |  |  | 137 |
|  |  | CC[C@H](C)[C@H](NC(=O)[C@H](Cc1ccccc1)NC(=O)[C@H](CCC(=O)O)NC(=O)[C@H](CCCNC(=N)N)NC(=O)[C@H](C)NC(=O)[C@H](C)NC(=O)[C@H](CCC(N)=O)NC(=O)[C@H](CCC(=O)O)NC(=O)[C@H](CCC(=O)O)NC(=O)[C@H](CC(C)C)NC(=O)[C@H](Cc1ccc(O)cc1)NC(=O)[C@H](CO)NC(=O)[C@H](CO)NC(=O)[C@@H](NC(=O)[C@H](CC(=O)O)NC(=O)[C@H](CO)NC(=O)[C@@H](NC(=O)[C@H](Cc1ccccc1)NC(=O)[C@@H](NC(=O)CNC(=O)[C@H](CCC(=O)O)NC(=O)C(C)(C)NC(=O)[C@@H](N)Cc1c[nH]cn1)[C@@H](C)O)[C@@H](C)O)C(C)C)C(=O)N[C@@H](C)C(=O)N[C@@H](Cc1c[nH]c2ccccc12)C(=O)N[C@@H](CC(C)C)C(=O)N[C@H](C(=O)N[C@@H](CCCNC(=N)N)C(=O)NCC(=O)N[C@@H](CCCNC(=N)N)C(=O)NCC(=O)N[C@@H](CCCCNC(=O)COCCOCCNC(=O)COCCOCCNC(=O)CC[C@H](NC(=O)[C@H]1CC[C@H](CNC(=O)CCCCCCCCCCCCCCCCCCCCC(=O)O)CC1)C(=O)O)C(=O)NCC(=O)NCC(=O)N[C@@H](CO)C(=O)N[C@@H](CCCCNC(=O)COCCOCCNC(=O)COCCOCCNC(=O)CC[C@H](NC(=O)[C@H]1CC[C@H](CNC(=O)CCCCCCCCCCCCCCCCCCCCC(=O)O)CC1)C(=O)O)C(=O)O)C(C)C [Example 9] (H-H[Aib]EGTFTSDVSSYLEEQAAREFIAWLVRGRGK([AEEA-AEEA-γGlu-Trx-C22 diacid])GGSK([AEEA-AEEA-γGlu-Trx-C22 diacid])-OH) | 0.101 | 21 | 1.6 | 167 |
